Several values for one entry are separate records, joined by “and”; a condition that tells them apart may be missing. Equal values may be shown once.
Key:
SW620 spheroids [1] = assay: SW620 spheroid size/volume, microfluidic Ibidi chip mimicking mouse PK profile; assay type: cell-based
Procedure: Spheroid images were taken for each experimental endpoint (day 7) using a Leica DMI4000B microscope (Leica Microsystems) with brightfield (BF), phase-contrast and fluorescence filters. Each flow line used two chips, one for viability assays and second for immunofluorescence. Both chips were imaged in BF prior spheroid recovery. Hardware embedded microscope scale has been translated in Fiji ImageJ to evaluate spheroid area/volume. The average size for SW620 spheroids was evaluated by measuring spheroid projection area in bright-field images, based on a macro script designed in an open-source imaging software (Fiji ImageJ) (Supplementary Method 1). Spheroid volume was evaluated following radius deduction from the measured area.

SW620 spheroids [2] = assay: SW620 spheroid viability (CellTiterGlo 3D), microfluidic Ibidi chip; assay type: cell-based
Description: The tested schedules were designed to recapitulate mouse plasma PK profiles from similar schedules used in in vivo efficacy studies (Table 1) with a desire to reverse translate in vivo data and to evaluate the predictive ability of our microfluidic chip setup. […] We investigated changes in the spheroid volume, as well as viability using the CellTiterGlo assay. To evaluate whether our system could also be used to monitor treatment impact on pharmacodynamic biomarkers, we collected individual spheroids at the end of the treatment period and performed immunofluorescence analysis for γH2AX (DNA double strand break marker), cleaved caspase 3 (apoptosis) and Ki67 (proliferation marker), as detailed in “Methods” section and Supplementary Fig. 2. Each treatment condition was repeated at least three times and measurements for each condition were pooled from at least six spheroid replicates.
To mimic in vivo anti-cancer drugs PK profile at a constant flow rate, an 8-point concentration scale for specific durations was used. Each drug was delivered at a specific concentration, for a specific amount of time, consistent with the average concentration for the same durations in vivo, on a 24-h step schedule.
Each compound concentration/timing represented an average of the corresponding in vivo plasma values, measured by mass spectrometry (Supplementary Methods 4 and 5).
Spheroid viability assessment used a metabolic method (CellTiterGlo 3D, G9681, Promega) by measuring luminescence units expressed by individually recovered spheroids. Each chip bottom polymer film was cut using a scalpel and spheroids were individually collected and transferred in 25 µL media to the wells of a half area 96-well plate (1/2 AreaPlate-96, white, 6002290, Perkin-Elmer). CellTiterGlo vial was allowed to thaw (1 h, room temperature) and 25 µL reagent were added to each spheroid well. Plates were lidded with black sealing tape (Nunc, 731-0750, VWR) and placed on and orbital shaker for 40′. Luminescence levels were measured using a SpectraMax i3X (Molecular Devices, USA).

[3] = In vivo PK profile determination in mouse plasma (LC-MS/MS, population-based PK model); conditions: for In vivo drug free concentrations: SN38 after irinotecan 50 mg/kg
Procedure: The samples were collected at 5, 15, 40 min, and 1, 2, 4, 6, 8 and 24 h.
Whole blood was mixed 1:5 with PBS and centrifuged at 1500×g for 3 min at 4 °C, and the plasma was extracted and frozen at –80 °C.
Using this PK model, a time course of free plasma concentrations of both drugs was simulated (Table 1).
Acidified acetonitrile ([…]) was added with the internal standard, followed by centrifugation at 3000 rpm for 10 min. Supernatant ([…]) was then removed to a clean plate and dried under nitrogen. […]
Supplementary Method 8. Pharmacokinetic models parameters used for simulations
AZD156 PK model and PK parameters used for simulations

Q: For CCc1c2c(nc3ccc(O)cc13)-c1cc3c(c(=O)n1C2)COC(=O)[C@]3(O)CC [SN38], which “spheroid size at day 6, fold increase in size over day 1” value (SW620 spheroids [1]; Microfluidic Ibidi chip, PK-profile exposure, 6 days, single spheroids (Fig 2c raw data)) is on record?
A: 2.9097 and 2.688 and 2.723 and 2.5658

Q: And the “spheroid volume as percentage of untreated control” value (SW620 spheroids [1]; microfluidic chip, SN38 mono (1d), day 7)?
A: 55%

Q: What about the spheroid viability (SW620 spheroids [2]; Microfluidic Ibidi chip, 6 days, CellTiterGlo, replicates (Fig 2d raw data), unit not given) of the same compound?
A: 62.9 and 51.36 and 50.85 and 54.46 and 62.33 and 64.07 (2×)

Q: What about the spheroid viability (SW620 spheroids [2]; microfluidic chip, SN38 mono (1d), day 7, single spheroids) of the same compound?
A: 6192690 RLU and 5479774 RLU and 8813513 RLU and 7953995 RLU and 8522809 RLU and 9260029 RLU and 5533818 RLU and 5710166 RLU

Q: What about the reduction in viability (SW620 spheroids [2]; microfluidic, dosed to mimic in vivo PK profile, 6 days) of the same compound?
A: ~ 40%

Q: What about the “In vivo drug free concentrations” value ([3]; mouse plasma, time 1 h) of the same compound?
A: 5.5 nM

Q: What about the “In vivo drug free concentrations” value ([3]; mouse plasma, time 2 h) of the same compound?
A: 4.7 nM

Q: What about the “In vivo drug free concentrations” value ([3]; mouse plasma, time 3 h) of the same compound?
A: 4.4 nM

Q: And the “In vivo drug free concentrations” value ([3]; mouse plasma, time 4 h)?
A: 4.1 nM

Q: What about the “In vivo drug free concentrations” value ([3]; mouse plasma, time 5 h) of the same compound?
A: 3.6 nM

Q: What about the “In vivo drug free concentrations” value ([3]; mouse plasma, time 6 h) of the same compound?
A: 3.1 nM

Q: What about the “In vivo drug free concentrations” value ([3]; mouse plasma, time 7 h) of the same compound?
A: 2.8 nM

Q: And the “In vivo drug free concentrations” value ([3]; mouse plasma, time 8 h)?
A: 2.4 nM

Q: And the “In vivo drug free concentrations” value ([3]; mouse plasma, time 9 h)?
A: 2.1 nM

Q: And the “In vivo drug free concentrations” value ([3]; mouse plasma, time 10 h)?
A: 1.9 nM

Q: And the “In vivo drug free concentrations” value ([3]; mouse plasma, time 11 h)?
A: 1.7 nM

Q: And the “In vivo drug free concentrations” value ([3]; mouse plasma, time 12 h)?
A: 1.6 nM

Q: What about the “In vivo drug free concentrations” value ([3]; mouse plasma, time 13 h) of the same compound?
A: 1.5 nM

Q: And the “In vivo drug free concentrations” value ([3]; mouse plasma, time 14 h)?
A: 1.4 nM

Q: What about the “In vivo drug free concentrations” value ([3]; mouse plasma, time 15 h) of the same compound?
A: 1.2 nM

Q: What about the “In vivo drug free concentrations” value ([3]; mouse plasma, time 16 h) of the same compound?
A: 1.1 nM

Q: What about the “In vivo drug free concentrations” value ([3]; mouse plasma, time 17 h) of the same compound?
A: 1.1 nM

Q: And the “In vivo drug free concentrations” value ([3]; mouse plasma, time 18 h)?
A: 0.9 nM

Q: What about the “In vivo drug free concentrations” value ([3]; mouse plasma, time 19 h) of the same compound?
A: 0.9 nM

Q: And the “In vivo drug free concentrations” value ([3]; mouse plasma, time 20 h)?
A: 0.8 nM

Q: And the “In vivo drug free concentrations” value ([3]; mouse plasma, time 21 h)?
A: 0.7 nM

Q: What about the “In vivo drug free concentrations” value ([3]; mouse plasma, time 22 h) of the same compound?
A: 0.7 nM

Q: And the “In vivo drug free concentrations” value ([3]; mouse plasma, time 23 h)?
A: 0.6 nM

Q: What about the “In vivo drug free concentrations” value ([3]; mouse plasma, time 24 h) of the same compound?
A: 0.6 nM

Q: And the “in vivo average measured concentration” value ([3]; mouse plasma, between 2-4h from treatment onset)?
A: 4.36 nM

Q: What about the Cmax ([3]; read-out: maximum mouse plasma concentration (Cmax), 50 mg/kg irinotecan (SN38), 10 mg/kg AZD0156) of the same compound?
A: 5.5 nM

— PMC8385015, “Tumour-on-chip microfluidic platform for assessment of drug pharmacokinetics and treatment response” (Communications Biology, 2021)
